According to ChEMBL document CHEMBL3886634, “Substituted 3-haloallylamine inhibitors of ASSAO and uses thereof” (2016):

Assays:
[1] = molecular target: T1, Diamine oxidase [copper-containing] (Homo sapiens, UniProt P19801); test: DAO Inhibition Assay: Recombinant human DAO (2.4 μg/mL) was used as source of DAO enzyme activities.
T1 sequence (P19801 whole entry): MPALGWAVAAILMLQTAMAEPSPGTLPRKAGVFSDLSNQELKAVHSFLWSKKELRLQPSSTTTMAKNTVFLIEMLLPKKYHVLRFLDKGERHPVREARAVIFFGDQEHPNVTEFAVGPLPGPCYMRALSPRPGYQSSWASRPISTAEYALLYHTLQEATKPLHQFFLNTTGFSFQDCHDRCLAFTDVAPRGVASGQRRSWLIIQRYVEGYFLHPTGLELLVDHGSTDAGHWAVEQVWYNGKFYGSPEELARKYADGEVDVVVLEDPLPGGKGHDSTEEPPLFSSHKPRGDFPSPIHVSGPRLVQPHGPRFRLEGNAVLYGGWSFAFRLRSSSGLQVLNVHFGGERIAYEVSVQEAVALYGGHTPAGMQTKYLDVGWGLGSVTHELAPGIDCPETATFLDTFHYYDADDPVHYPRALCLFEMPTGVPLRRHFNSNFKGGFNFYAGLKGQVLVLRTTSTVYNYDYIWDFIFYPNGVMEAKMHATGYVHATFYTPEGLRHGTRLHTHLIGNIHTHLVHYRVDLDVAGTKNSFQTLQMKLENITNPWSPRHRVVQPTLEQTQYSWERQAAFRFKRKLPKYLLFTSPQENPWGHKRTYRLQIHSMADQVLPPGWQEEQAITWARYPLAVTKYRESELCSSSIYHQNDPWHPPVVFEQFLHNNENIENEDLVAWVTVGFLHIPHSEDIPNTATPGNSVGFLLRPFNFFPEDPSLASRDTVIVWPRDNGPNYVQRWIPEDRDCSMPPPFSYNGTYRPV

[2] = molecular target: T2, Amine oxidase [flavin-containing] B (Homo sapiens, UniProt P27338)
T2 sequence (P27338 whole entry): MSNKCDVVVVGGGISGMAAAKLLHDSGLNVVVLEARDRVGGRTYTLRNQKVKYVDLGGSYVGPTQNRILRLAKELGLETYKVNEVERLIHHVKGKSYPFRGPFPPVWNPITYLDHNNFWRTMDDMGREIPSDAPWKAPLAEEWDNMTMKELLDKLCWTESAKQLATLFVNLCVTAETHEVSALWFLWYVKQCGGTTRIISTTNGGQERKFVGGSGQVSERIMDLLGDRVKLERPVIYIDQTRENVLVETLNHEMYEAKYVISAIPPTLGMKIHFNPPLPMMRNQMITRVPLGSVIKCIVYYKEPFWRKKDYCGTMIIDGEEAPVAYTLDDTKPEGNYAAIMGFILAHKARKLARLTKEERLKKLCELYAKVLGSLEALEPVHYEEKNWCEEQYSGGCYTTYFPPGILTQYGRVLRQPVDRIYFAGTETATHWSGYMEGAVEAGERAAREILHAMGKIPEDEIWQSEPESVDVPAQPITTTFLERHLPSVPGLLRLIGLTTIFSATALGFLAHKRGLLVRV

Work on `NC/C(=C/F)CCc1ccc(F)cc1` [MOFEGILINE] yielded an IC50 [1] of over 10000 nM and an IC50 [2] of 5 nM.
